# Measurements published in patent US20030022812A1, “Treating pain by targeting hyperpolarization-activated, cyclic nucleotide-gated channels” (priority 2001, published 2003).
# “Also recorded” adds a separate entry of the source.
# Columns and labels:
# SNL rats = test: Tactile allodynia (von Frey) in SNL (Chung) neuropathic pain model; type: in vivo, rat
# Procedure: Preparation of SNL (spinal nerve ligation) model: All studies were conducted in keeping with the guidelines of the Institutional Animal Care Committees of the University of California, San Diego and RWJPRI. Male Harlan Sprague-Dawley rats, 100-150 g, were housed in cages with solid bottoms and sawdust bedding, with a 12/12 h reversed light cycle (lights on 2100-900), and allowed free access to food pellets and water. Animals were housed in groups of 2 after surgical interventions. A surgical neuropathy was created as follows, to create a model commonly referred to as the SNL, or spinal nerve ligation model, also commonly referred to as the Chung model. Under isoflurane/oxygen anesthesia, a dorsal midline incision was made from approximately L3-S2. Using a mixture of sharp and blunt dissection, the left L6/S1 posterior interarticular process was exposed and resected to permit adequate visualization of the L6 transverse process, which was gently removed. Careful teasing of the underlying fascia exposed the left L4 and L5 spinal nerves distal to their emergence from the intervertebral foramina. The nerves were gently separated, and the L5 and in some cases either the L4 (for in vitro electrophysiology recordings) or the L6 nerve firmly ligated with 6-0 silk suture material. The wound was then inspected for hemostasis and closed in two layers. Animals with thresholds greater than 4 g were considered unsuccessful preparations(Chaplan et al., (1994) Journal of Neuroscience Methods 53: 55-63).
# Behavioral assessment: Behavioral signs of allodynia were documented as follows. Briefly, rats were transferred to a testing cage with a wire mesh bottom and allowed to acclimate for 10-15 minutes. […] Lifting of the paw was recorded as a positive response and the next lightest filament chosen for the next measurement. […]
# [1] = test system: rat complete Freund's adjuvant (CFA) model of hindpaw inflammation; test: Thermal hyperalgesia (modified Hargreaves apparatus) in rat CFA model of hindpaw inflammation; type: in vivo; settings: 10 mg/kg i.p.
# Procedure: (§1) However, blockade of HCN channels with ZD7288 at 10 mg/kg, i.p., had no effect on thermal hyperalgesia (measured using a modified Hargreaves apparatus) in two different models of inflammatory pain: the rat carrageenan model of hindpaw inflammation, and the rat complete Freund's adjuvant (CFA) model of hindpaw inflammation. As shown supra, HCN blockade also had little effect on acute thermally evoked pain in the hot plate test.
# [2] = test system: spontaneous firing of Aβ and Aδ neurons; test: In vitro single fiber recording of spontaneous discharges in excised dorsal root/DRG/spinal nerve preparation from SNL rats; type: cell-based, rat
# [3] = test system: rat carrageenan model of hindpaw inflammation; test: Thermal hyperalgesia (modified Hargreaves apparatus) in rat carrageenan model of hindpaw inflammation; type: in vivo; settings: 10 mg/kg i.p.
# Procedure: as §1
smiles,measurement,setting,value
CCN(c1ccccc1)c1cc(=NC)n(C)c(C)n1.Cl [ZD7288],efficacy of allodynia suppression (% MPE),SNL rats; i.p.,75.7+/−15.4%
same,suppression of tactile allodynia,"SNL rats; i.p. 1, 3, 10 mg/kg",blocked in a dose dependent manner; also recorded: suppressed the tactile allodynia
same,untoward behavioral effects / motor function,"SNL rats; i.p., up to 10 mg/kg",No untoward behavioral effects; also recorded: without overt adverse effects on behavior
same,effect on thermal hyperalgesia,[1],no effect
same,suppression of spontaneous (ectopic) discharges of Aβ fibers,[2]; 100 μM bath application for 5 min,complete suppression; also recorded: completely suppressed
same,effect on spontaneous firing of Aδ fiber,[2]; 100 micromolar,attenuation of firing
same,"time to complete suppression of ectopic firing, Aβ fiber",[2]; 100 micromolar,3 to 4 min
same,conduction blockade of evoked action potentials,[2]; after application of ZD7288,no conduction blockade
same,effect on thermal hyperalgesia,[3],no effect
